The assay concerns HiBiT-HSD17β13 fusion protein (N-terminal HiBiT-tagged HSD17β13 isoform D) in Huh7 HiBiT-HSD17β13 OE cells. The assay is described as follows: Whole-cell Huh7-HSD17B13 HiBiT assay (degrader potency and maximal efficacy, luminescence readout). The class given is cell-based, human. The conditions noted are these: 24 hour incubation, geometric mean, * = geometric mean for all forms tested (parent and salt forms); for DC50: read-out: Huh7_HIBIT-HSD17β13_DC50 GMean DC50; for Huh7_HIBIT-HSD17β13_DC50 GMean Asymptote Maximum: max. concentration 1 μM. On the procedure: Degrader potency and maximal efficacy of test compounds were determined using a whole-cell Huh7-HSD17B13 HiBiT assay, utilizing a luminescence readout. A HiBiT tag was fused to the N-terminus of HSD17β13, and therefore the HiBiT luminescence signal produced in the assay was proportional to the level of HiBiT-HSD17β13 fusion protein in a sample.
A Huh7 HiBiT-HSD17β13 OE cell line was generated using electroporation with an N-terminal HiBiT-tagged HSD17β13 isoform D overexpression plasmid, followed by geneticin selection to produce a stable pool. Clones were created with varying HiBiT signals to optimize HiBiT HSD17 β13 ratios. A clone with similar HSD17β13 expression levels as human primary hepatocytes was selected for the compound screen.
Greiner 384-well white opaque, flat bottom, tissue culture treated plates (Greiner #781080) were used for both HiBiT and CTG assays. The treated plates were spotted with 25 nL of a compound which had been serial diluted 1 in 3.162 in 100% DMSO for an 11-point concentration response curve, with duplicate points at each concentration. The maximum concentration of the compounds was 1 mM, which was later diluted with cell suspension for a maximum concentration of 1 μM). High percentage effect (HPE) wells and zero percentage effect (ZPE) wells located in columns 1 and 24 were spotted with 25 nL of DMSO (Sigma #D2650) using an ECHO Acoustic Liquid Handler (Labcyte Echo 550 Series). Each plate was performed in duplicate.
The Huh7 HiBiT-HSD17β13 OE cells were plated on top of a compound or a DMSO control at 3,000 viable cells/well in 25 μL growth media (DMEM (Gibco #10569), 10% FBS HI (Gibco #16140), 1× Pen/Strep (Gibco #15070), 1×MEM Non-Essential Amino Acids (Gibco #11140), and 300 μg/mL Geneticin (Gibco #10131) in columns 2-24 of the plates. Huh7 parental cells were plated using the same parameters in column 1 (HPE) in the same culture medium, excluding Geneticin selection. Cells were incubated overnight with the compounds for 24 hours (with lid) at 37° C. ([…]).
Each assay was conducted after a 24 hour incubation period. In the HiBiT assay plates, 25 μL of complete Nano-Glo HiBiT Lytic detection system (Promega #PRN3040), consisting of HiBiT Lytic Buffer with the addition of 1:100 LgBiT Protein and 1:50 Substrate, was added to each well. In CTG counter screen plates, 25 μL of Cell Titer-Glo Luminescent Reagent (Promega #G7573) was added to each well. Both plates were centrifuged for 2 minutes at 1000 rpm and incubated at room temperature, in the dark, for 10 minutes. Then Luminescence was read using an EnVision Plate Reader (Perkin Elmer PE2103).
The raw data from the Envision Plate Reader was expressed as relative luminescence units (RLUs) for each well of the assay plates. Using HPE and ZPE controls, the % effect was calculated for each sample well as follows: Percent effect=[(sample RLU−HPE RLU)\(ZPE RLU−HPE RLU)]*100. The percent effect was plotted versus the compound concentration and a 50% degradation ([…]) was determined using a four-parameter logistic dose response equation. The raw data was analyzed using ABase (IDBS).

Counter-ions that a name gives are not always drawn.

Turning to `O=C1CCN(c2cnn3cc(CCCN4CCO[C@]5(CCN(c6ccc7cn([C@H]8CC[C@H](CNC(=O)c9cc(F)c(O)c(F)c9F)CC8)nc7c6)C5)C4)ccc23)C(=O)N1` (single isomer, unassigned) [Example 30, trifluoroacetate salt], the DC50 turned out to be 1.7 nM and the “Huh7_HIBIT-HSD17β13_DC50 GMean Asymptote Maximum” value is listed as 74%.

Take `O=C1CCN(c2cnn3cc(CCCN4CCN(c5nccc(-c6nc([C@]78CC[C@](CNC(=O)c9cc(F)c(O)c(F)c9F)(CC7)CC8)no6)n5)CC4)ccc23)C(=O)N1` [Example 61, N-[(4-{5-[2-(4-{3-[3-(2,4-dioxo-1,3-diazinan-1-yl)pyrazolo[1,5-a]pyridin-6-yl]propyl}piperazin-1-yl)pyrimidin-4-yl]-1,2,4-oxadiazol-3-yl}bicyclo[2.2.2]octan-1-yl)methyl]-2,3,5-trifluoro-4-hydroxybenzamide, trifluoroacetate salt]: the DC50 is 2.6 nM and the “Huh7_HIBIT-HSD17β13_DC50 GMean Asymptote Maximum” value came out at 72%.

In the case of `Cn1c(=O)n(C2CCC(=O)NC2=O)c2ccc(CCN3CCOC4(C3)CN(c3ccc5cn([C@H]6CC[C@H](CNC(=O)c7cc(F)c(O)c(F)c7F)CC6)nc5c3)C4)cc21` (mixture of isomers) [Example 117, N-{[(1r,4r)-4-{6-[8-(2-{1-[(3RS)-2,6-dioxopiperidin-3-yl]-3-methyl-2-oxo-2,3-dihydro-1H-benzimidazol-5-yl}ethyl)-5-oxa-2,8-diazaspiro[3.5]nonan-2-yl]-2H-indazol-2-yl}cyclohexyl]methyl}-2,3,5-trifluoro-4-hydroxybenzamide, trifluoroacetate salt], the 50% degradation concentration (DC50) came out at 0.95 nM and the “Huh7_HIBIT-HSD17β13_DC50 GMean Asymptote Maximum” value was found to be 79%.

In the case of `Cn1c(=O)n(C2CCC(=O)NC2=O)c2ccc(CCN3CCOC4(CCN(c5ccc6cn([C@H]7CC[C@H](CNC(=O)c8cc(F)c(O)c(F)c8F)CC7)nc6c5)CC4)C3)cc21` (mixture of isomers) [Example 74, N-{[(1r,4r)-4-{6-[4-(2-{1-[(3RS)-2,6-dioxopiperidin-3-yl]-3-methyl-2-oxo-2,3-dihydro-1H-benzimidazol-5-yl}ethyl)-1-oxa-4,9-diazaspiro[5.5]undecan-9-yl]-2H-indazol-2-yl}cyclohexyl]methyl}-2,3,5-trifluoro-4-hydroxybenzamide, trifluoroacetate salt], the DC50 came to 0.23 nM and the “Huh7_HIBIT-HSD17β13_DC50 GMean Asymptote Maximum” value was 87%.

On to `Cn1c(=O)n(C2CCC(=O)NC2=O)c2ccc(CCC3CN(c4ncc(-c5ccc6cn([C@H]7CC[C@H](CNC(=O)c8cc(F)c(O)c(F)c8F)CC7)nc6c5)cn4)C3)cc21` (mixture of isomers) [Example 41, N-{[(1r,4r)-4-(6-{2-[3-(2-{1-[(3RS)-2,6-dioxopiperidin-3-yl]-3-methyl-2-oxo-2,3-dihydro-1H-benzimidazol-5-yl}ethyl)azetidin-1-yl]pyrimidin-5-yl}-2H-indazol-2-yl)cyclohexyl]methyl}-2,3,5-trifluoro-4-hydroxybenzamide], for which the DC50 amounted to 0.86 nM and the “Huh7_HIBIT-HSD17β13_DC50 GMean Asymptote Maximum” value was determined as 81%.

`Cn1c(=O)n(C2CCC(=O)NC2=O)c2ccc(CCCN3CCN(c4ccc(-c5nc([C@]67CC[C@](CNC(=O)c8cc(F)c(O)c(F)c8F)(CC6)CC7)no5)nn4)CC3)cc21` (mixture of isomers) [Example 66, N-{[4-(5-{6-[4-(3-{1-[(3RS)-2,6-dioxopiperidin-3-yl]-3-methyl-2-oxo-2,3-dihydro-1H-benzimidazol-5-yl}propyl)piperazin-1-yl]pyridazin-3-yl}-1,2,4-oxadiazol-3-yl)bicyclo[2.2.2]octan-1-yl]methyl}-2,3,5-trifluoro-4-hydroxybenzamide, trifluoroacetate salt]: the DC50 was 0.32 nM and the “Huh7_HIBIT-HSD17β13_DC50 GMean Asymptote Maximum” value was determined as 75%.

For the molecule `Cn1c(=O)n(C2CCC(=O)NC2=O)c2ccc(CCCN3CCn4cc(-c5ccc6cn([C@H]7CC[C@H](CNC(=O)c8cc(F)c(O)c(F)c8F)CC7)nc6c5)nc4C3)cc21` (mixture of isomers) [Example 100, N-{[(1r,4r)-4-{6-[7-(3-{1-[(3RS)-2,6-dioxopiperidin-3-yl]-3-methyl-2-oxo-2,3-dihydro-1H-benzimidazol-5-yl}propyl)-5,6,7,8-tetrahydroimidazo[1,2-a]pyrazin-2-yl]-2H-indazol-2-yl}cyclohexyl]methyl}-2,3,5-trifluoro-4-hydroxybenzamide, formate salt], the half-maximal degradation concentration (DC50) was 2.2 nM and the “Huh7_HIBIT-HSD17β13_DC50 GMean Asymptote Maximum” value stood at 84%.

As for `Cn1c(=O)n(C2CCC(=O)NC2=O)c2ccc(CCCN3CCOC4(CCN(c5ccc6cn([C@H]7CC[C@H](CNC(=O)c8cc(F)c(O)c(F)c8F)CC7)nc6c5)CC4)C3)cc21` (mixture of isomers) [Example 75, N-{[(1r,4r)-4-{6-[4-(3-{1-[(3RS)-2,6-dioxopiperidin-3-yl]-3-methyl-2-oxo-2,3-dihydro-1H-benzimidazol-5-yl}propyl)-1-oxa-4,9-diazaspiro[5.5]undecan-9-yl]-2H-indazol-2-yl}cyclohexyl]methyl}-2,3,5-trifluoro-4-hydroxybenzamide, trifluoroacetate salt], the DC50 is 0.19 nM and the “Huh7_HIBIT-HSD17β13_DC50 GMean Asymptote Maximum” value turned out to be 88%.

Regarding `Cn1c(=O)n(C2CCC(=O)NC2=O)c2ccc(CCCN3CCc4cc(-c5ccc6cn([C@H]7CC[C@H](CNC(=O)c8cc(F)c(O)c(F)c8F)CC7)nc6c5)ncc4C3)cc21` (mixture of isomers) [Example 88, N-{[(1r,4r)-4-{6-[7-(3-{1-[(3RS)-2,6-dioxopiperidin-3-yl]-3-methyl-2-oxo-2,3-dihydro-1H-benzimidazol-5-yl}propyl)-5,6,7,8-tetrahydro-2,7-naphthyridin-3-yl]-2H-indazol-2-yl}cyclohexyl]methyl}-2,3,5-trifluoro-4-hydroxybenzamide], the DC50 came out at 1.5 nM and the “Huh7_HIBIT-HSD17β13_DC50 GMean Asymptote Maximum” value was 81%.

On to `Cn1c(=O)n(C2CCC(=O)NC2=O)c2ccc(CCCN3CCN(c4nccc(-c5nc(C67CCC(CNC(=O)c8cc(F)c(O)c(F)c8F)(CC6)CC7)cs5)n4)CC3)cc21.O=CO` (racemic) [Example 4, N-{[4-(2-{2-[4-(3-{1-[(3RS)-2,6-Dioxopiperidin-3-yl]-3-methyl-2-oxo-2,3-dihydro-1H-benzimidazol-5-yl}propyl)piperazin-1-yl]pyrimidin-4-yl}-1,3-thiazol-4-yl)bicyclo[2.2.2]octan-1-yl]methyl}-2,3,5-trifluoro-4-hydroxybenzamide, formate salt], for which the DC50 came to 0.38 nM and the “Huh7_HIBIT-HSD17β13_DC50 GMean Asymptote Maximum” value came out at 84%.

On to `Cn1c(=O)n(C2CCC(=O)NC2=O)c2ccc(CN3CCN(c4ncc(-c5ccc6cn([C@]78CC[C@](CNC(=O)c9cc(F)c(O)c(F)c9F)(CC7)CC8)nc6c5)cn4)CC3)cc21` (mixture of isomers) [Example 83, N-{[4-(6-{2-[4-({1-[(3RS)-2,6-dioxopiperidin-3-yl]-3-methyl-2-oxo-2,3-dihydro-1H-benzimidazol-5-yl}methyl)piperazin-1-yl]pyrimidin-5-yl}-2H-indazol-2-yl)bicyclo[2.2.2]octan-1-yl]methyl}-2,3,5-trifluoro-4-hydroxybenzamide], for which the DC50 was found to be 0.5 nM and the “Huh7_HIBIT-HSD17β13_DC50 GMean Asymptote Maximum” value was found to be 81%.

For `Cc1ccc(C(=O)N2CCC3(CCN(c4ncc(-c5ccc6cn([C@H]7CC[C@H](CNC(=O)c8cc(F)c(O)c(F)c8F)CC7)nc6c5)cn4)CC3)C2)cc1N1CCC(=O)NC1=O` [Example 58, N-({(1r,4r)-4-[6-(2-{2-[3-(2,4-dioxo-1,3-diazinan-1-yl)-4-methylbenzoyl]-2,8-diazaspiro[4.5]decan-8-yl}pyrimidin-5-yl)-2H-indazol-2-yl]cyclohexyl}methyl)-2,3,5-trifluoro-4-hydroxybenzamide, trifluoroacetate salt], the DC50 was found to be 1.5 nM and the “Huh7_HIBIT-HSD17β13_DC50 GMean Asymptote Maximum” value is listed as 73%.
